# Experimental data: patent US8178534B2, “cMET inhibitors” (Takeda Pharmaceutical Company Limited, priority 2008, dated 2012)
# pEC50, pIC50: −log10 of the molar value.
# Assays:
# [1] = target: T1, cMET enzyme (amino acids 1023-1360) (Homo sapiens, UniProt P08581); test: Determination of inhibition of cMET (capillary electrophoresis, phosphorylated peptide product); assay type: biochemical; conditions: 1.2 nM cMET, 50 μM ATP, 2 μM FL-2 peptide, 2 hours room temperature
# T1 construct: The cMET enzyme (amino acids 1023-1360) nominally at 24 μM was held at −80° C. until use; His tag (N, cleaved yes); made in house; host or cells: Sf9 cells
# T1 sequence (P08581 1023-1360): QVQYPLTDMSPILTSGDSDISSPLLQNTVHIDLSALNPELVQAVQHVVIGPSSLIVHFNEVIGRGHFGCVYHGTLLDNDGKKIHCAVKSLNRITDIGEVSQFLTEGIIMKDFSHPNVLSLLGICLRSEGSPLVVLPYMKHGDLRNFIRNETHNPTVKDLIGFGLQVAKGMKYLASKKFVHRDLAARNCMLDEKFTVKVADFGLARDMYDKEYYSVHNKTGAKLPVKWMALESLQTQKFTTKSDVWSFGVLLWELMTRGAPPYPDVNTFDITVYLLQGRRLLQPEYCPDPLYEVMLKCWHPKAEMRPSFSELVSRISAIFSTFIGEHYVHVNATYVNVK
# Procedure: The inhibitory property of a compound relative to cMET catalysis was determined by use of capillary electrophoresis with fluorescence quantification of a phosphorylated peptide product for cMET. The cMET enzyme (amino acids 1023-1360) nominally at 24 μM was held at −80° C. until use, in a buffer containing 25 mM Tris-HCl pH 8.5, 150 mM NaCl, 3 mM DTT and 10% glycerol. […] Following purification, the tag was removed and enzyme concentrated. […] To activate the enzyme fully, frozen cMET was thawed quickly and activated with the addition of assay buffer (50 mM HEPES pH 7.5, 10 mM NaCl, 10 mM MgCl2, 0.01% Brij® 35), 1.25 mM ATP, 5 mM MgCl2 and 5 mM DTT at a cMET concentration of 2.4 μM followed by a 30 minute incubation at room temperature. […] Next, cMET enzyme (1.2 nM final) was added and the system incubated at room temperature for 20 minutes. Catalysis was initiated by the addition of ATP (50 μM final). Assays were incubated at room temperature for 2 hours then quenched by the addition of EDTA. Phosphorylated peptide product was quantified by monitoring fluorescence during capillary electrophoresis with Caliper LifeSciences LabChip 3000 under the following settings: base pressure=−0.1 psi, screen pressure=−1.2 psi, downstream voltage=−500 V, upstream voltage=−2300 V, chip type=TC372. The elution buffer was identical to the assay buffer except for the absence of DTT, FL-2 and ATP and the addition of 0.1% coating reagent (Caliper). […] Peak height was quantified and used to determine enzyme velocities.
# IC50 values were calculated by non-linear least squares curve fitting of the standard IC50 equation to background-corrected cMET velocity versus compound concentration.
# MKN45 = test: Inhibition of cell viability (MTS), MKN45; assay type: cell-based; conditions: Homo sapiens, 96 hours incubation
# Procedure: (§1) Cells were maintained at 37° C. in a humidified atmosphere containing 5%-8% CO2 following the instructions of the supplier (American Type Culture Collection (Rockville, Md.)). Inhibition of cell viability was determined for a panel of tumor cell lines (MKN45, EBC1 and A549), using the soluble tetrazolium salt, MTS (Promega, Madison, Wis.). Cells were seeded at 2,000-7,500 cells/well in 96-well tissue culture plates and were allowed to attach for approximately 24 hours prior to addition of compounds or DMSO vehicle. […] Cells were treated in duplicate with test compounds. Compounds were serially diluted (1:2.5) from column 1 to 11 and column 12 contained DMSO vehicle. Compounds were diluted into cell growth medium then compound solution was added to cells. Equal amounts of DMSO were added to cells (final concentration is 0.5%). After background correction and normalization against DMSO-treated cells, EC50 values were calculated using non-linear curve-fitting of the cell viability as a function of compound concentration. The MKN45 and EBC1 cell lines contain high levels of phospho-Met and are dependent on cMET for proliferation, whereas the A549 line is used as negative control.
# (§2) EC50 values may be calculated by non-linear curve fitting of the compound concentrations and fluorescence intensities to the standard EC50 equation.
# EBC1 = test: Inhibition of cell viability (MTS), EBC1; assay type: cell-based; conditions: Homo sapiens, 96 hours incubation
# Procedure: as §1, §2
# A549 = test: Inhibition of cell viability (MTS), A549 (negative control line); assay type: cell-based; conditions: Homo sapiens, A549 cells (negative control), 96 hours incubation
# Procedure: as §1, §2
SMILES,pIC50 [1],"pEC50 (MKN45; MKN-45, 96 h, MKN45 cells)","pEC50 (EBC1; EBC-1, 96 h, EBC1 cells)","pEC50 (A549; A549, 96 h)","pEC50 (MKN45; MKN-45, MKN45 cells)","pEC50 (EBC1; EBC-1, EBC1 cells)",pEC50 (A549)
O=C(Nc1cn2nc(Cn3nnc4ccc(-c5cnn(C[C@@H](O)CO)c5)cc43)ccc2n1)C1CC1 [Compound 23],7.23 to 7.52,6.20 to 6.60,6.70 to 7.00,< 4.30,,,
O=C(Nc1cn2nc(Cn3nnc4ccc(-c5cnn(CCO)c5)cc43)ccc2n1)C1CC1 [Compound 24],7.00 to 7.22,6.60 to 7.00,7.00 to 7.46,< 4.30,,,
"C=C(C)c1ccc2nnc(Sc3ccc4nc(NC(=O)C5CC5)cn4n3)n2c1 [Compound 25, N-(6-(6-(prop-1-en-2-yl)-[1,2,4]triazolo[4,3-a]pyridin-3-ylthio)imidazo[1,2-b]pyridazin-2-yl)cyclopropanecarboxamide]",> 7.52,> 7.00,> 7.46,4.60 to 5.10,,,
"CC(C)c1ccc2nnc(Sc3ccc4nc(NC(=O)C5CC5)cn4n3)n2c1 [Compound 26, N-(6-(6-isopropyl-[1,2,4]triazolo[4,3-a]pyridin-3-ylthio)imidazo[1,2-b]pyridazin-2-yl)cyclopropanecarboxamide]",> 7.52,> 7.00,> 7.46,< 4.71,,,
"O=C(NCCO)Nc1cn2nc(Sc3nnc4ccc(-c5cccc(F)c5)cn34)ccc2n1 [Compound 27, 1-(6-(6-(3-fluorophenyl)-[1,2,4]triazolo[4,3-a]pyridin-3-ylthio)imidazo[1,2-b]pyridazin-2-yl)-3-(2-hydroxyethyl)urea]",> 7.52,,,,> 7.00,7.00 to 7.46,< 4.30
"CNC(=O)c1ccc(-c2ccc3nnc(Sc4ccc5nc(NC(=O)C6CC6)cn5n4)n3c2)cc1Cl [Compound 28, 2-chloro-4-(3-(2-(cyclopropanecarboxamido)imidazo[1,2-b]pyridazin-6-ylthio)-[1,2,4]triazolo[4,3-a]pyridin-6-yl)-N-methylbenzamide]",> 7.52,> 7.00,> 7.46,< 4.30,,,
"COCCOCn1cc(-c2ccc3nnc(Sc4ccc5nc(NC(=O)C6CC6)cn5n4)n3c2)cn1 [Compound 29, N-(6-(6-(1-((2-methoxyethoxy)methyl)-1H-pyrazol-4-yl)-[1,2,4]triazolo[4,3-a]pyridin-3-ylthio)imidazo[1,2-b]pyridazin-2-yl)cyclopropanecarboxamide]",7.00 to 7.22,,,,> 7.00,7.00 to 7.46,< 4.30
"CN(C)C(=O)Cn1cc(-c2ccc3nnc(Sc4ccc5nc(NC(=O)C6CC6)cn5n4)n3c2)cn1 [Compound 30, N-(6-(6-(1-(2-(dimethylamino)-2-oxoethyl)-1H-pyrazol-4-yl)-[1,2,4]triazolo[4,3-a]pyridin-3-ylthio)imidazo[1,2-b]pyridazin-2-yl)cyclopropanecarboxamide]",7.23 to 7.52,< 6.20,< 6.70,< 4.71,,,
"COCCn1cc(-c2ccc3nnc(Sc4ccc5nc(NC(=O)C6CC6)cn5n4)n3c2)cn1 [Compound 31, N-(6-(6-(1-(2-methoxyethyl)-1H-pyrazol-4-yl)-[1,2,4]triazolo[4,3-a]pyridin-3-ylthio)imidazo[1,2-b]pyridazin-2-yl)cyclopropanecarboxamide]",7.23 to 7.52,> 7.00,> 7.46,< 4.30,,,
O=C(Nc1cn2nc(Sc3nnc4ccc(-c5cnn(CCO)c5)cn34)ccc2n1)C1CC1 [Compound 32],> 7.52,6.60 to 7.00,7.00 to 7.46,< 4.30,,,
"O=C(O)c1ccc2nnc(Sc3ccc4nc(NC(=O)C5CC5)cn4n3)n2c1 [Compound 33, 3-(2-(cyclopropanecarboxamido)imidazo[1,2-b]pyridazin-6-ylthio)-[1,2,4]triazolo[4,3-a]pyridine-6-carboxylic acid]",< 7.00,,,,< 6.20,< 6.70,< 4.30
"O=C(NC1CC1)c1ccc2nnc(Sc3ccc4nc(NC(=O)C5CC5)cn4n3)n2c1 [Compound 34, 3-(2-(cyclopropanecarboxamido)imidazo[1,2-b]pyridazin-6-ylthio)-N-cyclopropyl-[1,2,4]triazolo[4,3-a]pyridine-6-carboxamide]",7.00 to 7.22,< 6.20,< 6.70,< 4.30,,,
"CC(C)CNC(=O)c1ccc2nnc(Sc3ccc4nc(NC(=O)C5CC5)cn4n3)n2c1 [Compound 35, 3-(2-(cyclopropanecarboxamido)imidazo[1,2-b]pyridazin-6-ylthio)-N-isobutyl-[1,2,4]triazolo[4,3-a]pyridine-6-carboxamide]",< 7.00,< 6.20,6.70 to 7.00,< 4.71,,,
